{"source": "ChEMBL document CHEMBL4270547", "about": "“Copper(I) oxide nanoparticles catalyzed click chemistry based synthesis of melampomagnolide B-triazole conjugates and their anti-cancer activities” (Eur J Med Chem, 2018)", "key": {"HCT-116 [1]": {"system": "HCT-116", "assay": "Antimigratory activity in human HCT116 cells assessed as decrease in MMP9 expression at 0.25 to 2 uM after 48 hrs by Western blot analysis", "format": "functional, cell-based"}, "HCT-116 [2]": {"system": "HCT-116", "assay": "Cell cycle arrest in human HCT116 cells assessed as increase in p27 levels at 0.25 to 2 uM after 48 hrs by Western blot analysis", "format": "functional, cell-based"}, "HCT-116 [3]": {"system": "HCT-116", "assay": "Antimigratory activity in human HCT116 cells assessed as decrease in N-cadherin expression at 0.25 to 2 uM after 48 hrs by Western blot analysis", "format": "functional, cell-based"}, "HCT-116 [4]": {"system": "HCT-116", "assay": "Antimigratory activity in human HCT116 cells assessed as increase in E-cadherin expression at 0.25 to 2 uM after 48 hrs by Western blot analysis", "format": "functional, cell-based"}, "HCT-116 [5]": {"system": "HCT-116", "assay": "Cell cycle arrest in human HCT116 cells assessed as decrease in phosphorylated CDC2 levels at 0.25 to 2 uM after 48 hrs by Western blot analysis", "format": "functional, cell-based"}, "HCT-116 [6]": {"system": "HCT-116", "assay": "Induction of apoptosis in human HCT116 cells assessed as increase in Bim protein levels after 48 hrs by Western blot analysis", "format": "functional, cell-based"}, "HCT-116 [7]": {"system": "HCT-116", "assay": "Antimigratory activity in human HCT116 cells assessed as increase in ZO-1 expression at 0.25 to 2 uM after 48 hrs by Western blot analysis", "format": "functional, cell-based"}, "HCT-116 [8]": {"system": "HCT-116", "assay": "Induction of apoptosis in human HCT116 cells assessed as viable cells at 1 uM after 48 hrs by Annexin V-FITC/propidium iodide staining-based flow cytometric analysis (reference value: 94.2%)", "format": "functional", "settings": "HCT-116, 48 h, read-out: Activity"}, "HCT-116 [9]": {"system": "HCT-116", "assay": "Induction of apoptosis in human HCT116 cells assessed as early apoptotic cells at 0.5 uM after 48 hrs by Annexin V-FITC/propidium iodide staining-based flow cytometric analysis (reference value: 2.46%)", "format": "functional"}, "HCT-116 [10]": {"system": "HCT-116", "assay": "Cell cycle arrest in human HCT116 cells assessed as increase in phosphorylated CHK1 levels at 0.25 to 2 uM after 48 hrs by Western blot analysis", "format": "functional, cell-based"}, "FHC": {"system": "FHC", "assay": "Cytotoxicity against human FHC cells", "format": "cell-based"}, "HCT-116 [11]": {"system": "HCT-116", "assay": "Induction of apoptosis in human HCT116 cells assessed as necrotic cells at 0.5 uM after 48 hrs by Annexin V-FITC/propidium iodide staining-based flow cytometric analysis (reference value: 2.55%)", "format": "functional"}, "HCT-116 [12]": {"system": "HCT-116", "assay": "Induction of apoptosis in human HCT116 cells assessed as late apoptotic cells at 0.25 uM after 48 hrs by Annexin V-FITC/propidium iodide staining-based flow cytometric analysis (reference value: 0.824%)", "format": "functional"}, "Bel-7402": {"system": "Bel-7402", "assay": "Antiproliferative activity against human Bel7402 cells after 72 hrs by MTT assay", "format": "functional, cell-based", "settings": "Bel-7402, 72 h"}, "HCT-116 [13]": {"system": "HCT-116", "assay": "Induction of apoptosis in human HCT116 cells assessed as necrotic cells at 0.25 uM after 48 hrs by Annexin V-FITC/propidium iodide staining-based flow cytometric analysis (reference value: 2.55%)", "format": "functional"}, "HCT-116 [14]": {"system": "HCT-116", "assay": "Cell cycle arrest in human HCT116 cells assessed as decrease in phosphorylated CHK2 levels at 0.25 to 2 uM after 48 hrs by Western blot analysis", "format": "functional, cell-based"}, "HCT-116 [15]": {"system": "HCT-116", "assay": "Inhibition of colony formation in human HCT116 cells assessed as decrease in number of colonies at 0.25 uM after 10 days by crystal violet staining-based analysis", "format": "functional, cell-based"}, "HCT-116 [16]": {"system": "HCT-116", "assay": "Antimigratory activity in human HCT116 cells assessed as decrease in vimentin expression at 0.25 to 2 uM after 48 hrs by Western blot analysis", "format": "functional, cell-based"}, "HCT-116 [17]": {"system": "HCT-116", "assay": "Induction of apoptosis in human HCT116 cells assessed as late apoptotic cells at 2 uM after 48 hrs by Annexin V-FITC/propidium iodide staining-based flow cytometric analysis (reference value: 0.824%)", "format": "functional"}, "HCT-116 [18]": {"system": "HCT-116", "assay": "Induction of apoptosis in human HCT116 cells assessed as necrotic cells at 1 uM after 48 hrs by Annexin V-FITC/propidium iodide staining-based flow cytometric analysis (reference value: 2.55%)", "format": "functional"}, "HCT-116 [19]": {"system": "HCT-116", "assay": "Cell cycle arrest in human HCT116 cells assessed as increase in cells at G2/M phase at 0.25 uM after 48 hrs by propidium iodide staining-based flow cytometric analysis", "format": "functional"}, "PANC-1": {"system": "PANC-1", "assay": "Antiproliferative activity against human PANC1 cells after 72 hrs by MTT assay", "format": "functional, cell-based", "settings": "PANC-1, 72 h"}, "HCT-116 [20]": {"system": "HCT-116", "assay": "Induction of apoptosis in human HCT116 cells assessed as decrease in Bcl2 protein levels after 48 hrs by Western blot analysis", "format": "functional, cell-based"}, "HCT-116 [21]": {"system": "HCT-116", "assay": "Induction of apoptosis in human HCT116 cells assessed as decrease in procaspase3 levels at 0.25 to 2 uM after 48 hrs by Western blot analysis", "format": "functional, cell-based"}, "HCT-116 [22]": {"system": "HCT-116", "assay": "Induction of apoptosis in human HCT116 cells assessed as late apoptotic cells at 0.5 uM after 48 hrs by Annexin V-FITC/propidium iodide staining-based flow cytometric analysis (reference value: 0.824%)", "format": "functional"}, "HCT-116 [23]": {"system": "HCT-116", "assay": "Cell cycle arrest in human HCT116 cells assessed as decrease in CHK2 expression at 0.25 to 2 uM after 48 hrs by Western blot analysis", "format": "functional, cell-based"}, "HCT-116 [24]": {"system": "HCT-116", "assay": "Cell cycle arrest in human HCT116 cells assessed as decrease in cyclin E expression at 0.25 to 2 uM after 48 hrs by Western blot analysis", "format": "functional, cell-based"}, "HCT-116 [25]": {"system": "HCT-116", "assay": "Induction of apoptosis in human HCT116 cells assessed as late apoptotic cells at 1 uM after 48 hrs by Annexin V-FITC/propidium iodide staining-based flow cytometric analysis (reference value: 0.824%)", "format": "functional"}, "HCT-116 [26]": {"system": "HCT-116", "assay": "Cell cycle arrest in human HCT116 cells assessed as decrease in cells at S phase at 0.25 uM after 48 hrs by propidium iodide staining-based flow cytometric analysis", "format": "functional"}, "HCT-116 [27]": {"system": "HCT-116", "assay": "Induction of apoptosis in human HCT116 cells assessed as viable cells at 0.5 uM after 48 hrs by Annexin V-FITC/propidium iodide staining-based flow cytometric analysis (reference value: 94.2%)", "format": "functional", "settings": "HCT-116, 48 h, read-out: Activity"}, "HCT-116 [28]": {"system": "HCT-116", "assay": "Induction of apoptosis in human HCT116 cells assessed as early apoptotic cells at 0.25 uM after 48 hrs by Annexin V-FITC/propidium iodide staining-based flow cytometric analysis (reference value: 2.46%)", "format": "functional"}, "HCT-116 [29]": {"system": "HCT-116", "assay": "Induction of apoptosis in human HCT116 cells assessed as viable cells at 2 uM after 48 hrs by Annexin V-FITC/propidium iodide staining-based flow cytometric analysis (reference value: 94.2%)", "format": "functional", "settings": "HCT-116, 48 h, read-out: Activity"}, "HCT-116 [30]": {"system": "HCT-116", "assay": "Induction of apoptosis in human HCT116 cells assessed as necrotic cells at 2 uM after 48 hrs by Annexin V-FITC/propidium iodide staining-based flow cytometric analysis (reference value: 2.55%)", "format": "functional"}, "HCT-116 [31]": {"system": "HCT-116", "assay": "Induction of apoptosis in human HCT116 cells assessed as decrease in Bcl-xl protein levels after 48 hrs by Western blot analysis", "format": "functional, cell-based"}, "HCT-116 [32]": {"system": "HCT-116", "assay": "Induction of apoptosis in human HCT116 cells assessed as early apoptotic cells at 2 uM after 48 hrs by Annexin V-FITC/propidium iodide staining-based flow cytometric analysis (reference value: 2.46%)", "format": "functional"}, "NIH3T3": {"system": "NIH3T3", "assay": "Cytotoxicity against mouse 3T3 cells", "format": "cell-based"}, "HCT-116 [33]": {"system": "HCT-116", "assay": "Induction of apoptosis in human HCT116 cells assessed as increase in cytochrome c levels at 0.25 to 2 uM after 48 hrs by Western blot analysis", "format": "functional, cell-based"}, "HCT-116 [34]": {"system": "HCT-116", "assay": "Induction of apoptosis in human HCT116 cells after 48 hrs by Annexin V-FITC/propidium iodide staining-based flow cytometric analysis", "format": "functional, cell-based"}}, "note": "The source made the active and inactive calls. No cut-off for these calls is given here.", "data": [{"smiles": "C=C1C(=O)O[C@@H]2[C@H]3O[C@]3(C)CC/C=C(/Cn3cc(COc4ccc([N+](=O)[O-])cc4)nn3)CC[C@@H]12", "values": [{"measurement": "Activity", "setting": "HCT-116 [1]", "value": "Active"}, {"measurement": "Activity", "setting": "HCT-116 [2]", "value": "Active"}, {"measurement": "Activity", "setting": "HCT-116 [3]", "value": "Active"}, {"measurement": "Activity", "setting": "HCT-116 [4]", "value": "Active"}, {"measurement": "Activity", "setting": "HCT-116 [5]", "value": "Active"}, {"measurement": "Activity", "setting": "HCT-116 [6]", "value": "Dose-dependent effect"}, {"measurement": "Activity", "setting": "HCT-116 [7]", "value": "Active"}, {"measurement": "viability at 1 µM", "setting": "HCT-116 [8]", "value": 49.1, "unit": "%"}, {"measurement": "Activity", "setting": "HCT-116 [9]", "value": 21.1, "unit": "%"}, {"measurement": "Activity", "setting": "HCT-116 [10]", "value": "Active"}, {"measurement": "IC50", "setting": "FHC", "value": 1.02, "unit": "µM"}, {"measurement": "Activity", "setting": "HCT-116 [11]", "value": 2.18, "unit": "%"}, {"measurement": "Activity", "setting": "HCT-116 [12]", "value": 3.85, "unit": "%"}, {"measurement": "IC50", "setting": "Bel-7402", "value": 0.7, "unit": "µM"}, {"measurement": "Activity", "setting": "HCT-116 [13]", "value": 2.09, "unit": "%"}, {"measurement": "Activity", "setting": "HCT-116 [14]", "value": "Active"}, {"measurement": "inhibition", "setting": "HCT-116 [15]", "value": "Active"}, {"measurement": "Activity", "setting": "HCT-116 [16]", "value": "Active"}, {"measurement": "Activity", "setting": "HCT-116 [17]", "value": 51.3, "unit": "%"}, {"measurement": "Activity", "setting": "HCT-116 [18]", "value": 7.04, "unit": "%"}, {"measurement": "Activity", "setting": "HCT-116 [19]", "value": "Active"}, {"measurement": "IC50", "setting": "PANC-1", "value": 1.54, "unit": "µM"}, {"measurement": "Activity", "setting": "HCT-116 [20]", "value": "Dose-dependent effect"}, {"measurement": "Activity", "setting": "HCT-116 [21]", "value": "Active"}, {"measurement": "Activity", "setting": "HCT-116 [22]", "value": 3.84, "unit": "%"}, {"measurement": "Activity", "setting": "HCT-116 [23]", "value": "Active"}, {"measurement": "Activity", "setting": "HCT-116 [24]", "value": "Active"}, {"measurement": "Activity", "setting": "HCT-116 [25]", "value": 13.5, "unit": "%"}, {"measurement": "Activity", "setting": "HCT-116 [26]", "value": "Active"}, {"measurement": "viability at 0.5 µM", "setting": "HCT-116 [27]", "value": 72.9, "unit": "%"}, {"measurement": "Activity", "setting": "HCT-116 [28]", "value": 13.6, "unit": "%"}, {"measurement": "viability at 2 µM", "setting": "HCT-116 [29]", "value": 16.6, "unit": "%"}, {"measurement": "Activity", "setting": "HCT-116 [30]", "value": 9.47, "unit": "%"}, {"measurement": "Activity", "setting": "HCT-116 [31]", "value": "Dose-dependent effect"}, {"measurement": "Activity", "setting": "HCT-116 [32]", "value": 22.6, "unit": "%"}, {"measurement": "IC50", "setting": "NIH3T3", "value": 3.45, "unit": "µM"}, {"measurement": "Activity", "setting": "HCT-116 [33]", "value": "Active"}, {"measurement": "Activity", "setting": "HCT-116 [34]", "value": "Dose-dependent effect"}]}]}
